In publication PMC7292393 (PLoS ONE, 2020):
Values joined by “and” are separate entries in the source; they are usually repeats but may differ in a detail not shown here. Identical values can stand only once.

How the values were obtained:
[1] = biological target: T1, human SUMO1 (Homo sapiens, UniProt P63165); assay: SPR secondary screen / dose-dependent binding; design: key to SPR Screens 2°: ✓: dose-dependent saturation kinetics; ×: no indication of saturation kinetics; conditions: for saturation binding in SPR secondary screen: Fig 2A-H; for SPR Screens 2°: five concentrations 31.25-500 μM; for Kd: one-site hyperbola fit, 31.25-500 μM flavonoid, Fig 2A-C, read-out: Kd (SPR secondary screen)
T1 construct: encoding amino acids 1–97 of mature human SUMO1; host or cells: E. coli BL21 Rosetta (DE3)
T1 sequence (P63165 1-97): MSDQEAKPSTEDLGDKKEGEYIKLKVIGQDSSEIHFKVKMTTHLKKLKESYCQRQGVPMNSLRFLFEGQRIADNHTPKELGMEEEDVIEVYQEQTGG

[2] = biological target: T1, human SUMO1; assay: Surface plasmon resonance (SPR) primary screen; type: binding; conditions: for SPR Screens 1° / %RUmax: 500 μM flavonoid in DMSO; for SPR Screens 1°: cut-off of %RUmax of ~15; for interaction in SPR primary screen: 500 μM, %RUmax above threshold of ~15%; for %RUmax: SPR primary screen, (Mean RU/RUmax)*100;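 as to all read-outs here: recombinant human SUMO1 amine-coupled to a sensor chip, blank activated and quenched reference flow cell, flavonoids injected 2 min then 1 min dissociation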
[3] = biological target: T1, human SUMO1; assay: Differential scanning fluorimetry (DSF) thermal shift; type: binding; design: key to DSF Tm SUMO1 + Flavonoid (class): UF: unfolded protein; ND: melting curve could not be determined; conditions: 2 μM SUMO1, 300 μM flavonoid; for DSF Tm SUMO1 + Flavonoid: mean and SEM, n = 5, SUMO1 + DMSO 59.63 ± 0.03
[4] = Precipitation in NMR samples; type: physicochemical; conditions: at 400 μM, dissolved in DMSO-d6, NMR sample
Description: All NMR experiments for 2D ^1H-^15N HSQC spectra were performed at 17°C on a Varian VNMR 500 MHz spectrometer equipped with a 5mm cryogenic triple resonance probe. Complex points 1024 × 128 and spectral widths of 14 × 38 ppm were used to record all the spectra. […] DMSO-d6 used as a cosolvent caused a slight shift (< ~0.8ppm) of resonance peaks. Therefore resonance assignments for ^15N-labeled SUMO1 residues were compared to the DMSO control treatment and normalized by a common factor. […] The resonance peak assignments were performed using data deposited in the Biological Resonance Data Bank (BMRB) under 25576 as reference. Chemical shift changes were characterized by calculating a weighted chemical shift difference as previously described. […] The chemical shift perturbation data from this work are deposited under BMRB ID 50128.

[5] = biological target: T1, human SUMO1; assay: Native-PAGE mobility shift; type: binding; conditions: SUMO1 ~40 μM, 300 μM flavonoid
Description: Recombinantly purified proteins (Saccharomyces cerevisiae SMT3, Saccharomyces cerevisiae Ulp1, and human SUMO1) were incubated with flavonoids (or DMSO vehicle control) for 30 min to 1 hr at 4°C. Samples were loaded onto 4–20% or 7.5% Mini-PROTEAN TGX Precast Protein Gels (Bio-Rad, Hercules, CA) and were run […] at 95 V for 4 hr 30 min at 4°C using a standard SDS-free loading buffer (pH 8.0) and Tris-glycine running buffer (pH 8.3). Immediately after electrophoresis, the gel was imaged to track migration of bright yellow flavonoid. Following this step, the gel was stained with Bio-Safe Coomassie (Bio-Rad, Hercules, CA) to detect the proteins.

SMILES | saturation binding in SPR secondary screen [1] | SPR Screens 2° [1] | SPR Screens 1° [2] | interaction in SPR primary screen [2] | %RUmax [2] | effect on DSF thermogram / thermal stability of SUMO1 [3] | DSF Tm SUMO1 + Flavonoid [3] | Kd [1] | precipitation in NMR sample [4] | electrophoretic mobility shift of human SUMO1 [5] | DSF Tm SUMO1 + Flavonoid (class) [3]
O=c1c(-c2ccc(O)c(O)c2)coc2cc(O)ccc12 [3’,4’,7-Trihydroxy-isoflavone, 3’,4’,7-Trihydroxyisoflavone] | failed to exhibit saturation binding | × | ✓ (%RUmax with binding activity above cut-off) | interacted with SUMO1 in the primary screen | 48.0% | significant thermal destabilization or unfolding | 33.28 ± 0.15 °C |  |  |  | 
O=C(/C=C/c1ccc(O)c(O)c1)c1ccc(O)cc1O [Butein] | failed to exhibit saturation binding | × | ✓ (%RUmax with binding activity above cut-off) | interacted with SUMO1 in the primary screen | 74.2% |  |  |  |  |  | 
COc1cc(O)c(Cc2ccccc2O)c(O)c1C(=O)/C=C/c1ccccc1 [C-benzylated chalcone] |  |  | × (low or no binding activity) |  | -5.3% |  |  |  |  |  | 
O=C(/C=C/c1ccc(O)cc1)c1ccc(O)cc1O [Isoliquiritigenin] |  | ✓ |  | interacted with SUMO1 in the primary screen |  |  |  | ~196 µM |  |  | 
O=c1c(O)c(-c2ccc(O)cc2)oc2cc(O)cc(O)c12 [Kaempferol, 3,4′,5,7-tetrahydroxyflavone] |  |  | × (low or no binding activity) |  | 12.6% | little or no effect | 60.28 ± 0.09 °C |  | Precipitation |  | 
O=c1cc(-c2ccc(O)c(O)c2)oc2cc(O)cc(O)c12 [Luteolin] |  |  | × (low or no binding activity) |  | -47.8% | significant thermal destabilization or unfolding | 51.89 ± 0.68 °C |  |  | unable to detect a similar gel shift | 
O=C1C[C@@H](c2ccc(O)cc2)Oc2cc(O)cc(O)c21 [Naringenin] | failed to exhibit saturation binding | × | ✓ (%RUmax with binding activity above cut-off) | interacted with SUMO1 in the primary screen | 27.5% |  | 59.24 ± 0.13 °C |  |  |  | 
C[C@@H]1O[C@@H](O[C@H]2[C@H](Oc3cc(O)c(C(=O)CCc4ccc(O)cc4)c(O)c3)O[C@H](CO)[C@@H](O)[C@@H]2O)[C@H](O)[C@H](O)[C@H]1O [Naringin dihydrochalcone] |  |  | × (low or no binding activity) |  | 8.5% |  | 59.94 ± 0.07 °C |  |  |  | 
C[C@@H]1O[C@@H](O[C@H]2[C@H](Oc3cc(O)c4c(c3)O[C@H](c3ccc(O)cc3)CC4=O)O[C@H](CO)[C@@H](O)[C@@H]2O)[C@H](O)[C@H](O)[C@H]1O [Naringin] |  |  | × (low or no binding activity) |  | 5.4% |  | 58.93 ± 0.02 °C |  |  |  | 
Cc1c(O)cc2oc(-c3ccc(O)c(O)c3)c(O)c(=O)c2c1O [Pinoquercetin] | failed to exhibit saturation binding | × | ✓ (%RUmax with binding activity above cut-off) | interacted with SUMO1 in the primary screen | 143.4% |  |  |  |  |  | 
O=c1c(O[C@@H]2O[C@H](CO)[C@@H](O)[C@H](O)[C@H]2O)c(-c2ccc(O)c(O)c2)oc2cc(O)cc(O)c12 [Quercetin 3-β-D-glucoside] | failed to exhibit saturation binding | × | ✓ (%RUmax with binding activity above cut-off) | interacted with SUMO1 in the primary screen | 21.3% |  | 56.95 ± 0.28 °C |  |  |  | 
O=c1c(O)c(-c2ccc(O)c(O)c2)oc2cc(O)cc(O)c12 [Quercetin, 3,3',4',5,7-pentahydroxyflavone] | exhibited binding that approached saturation | ✓ | ✓ (%RUmax with binding activity above cut-off) | interacted with SUMO1 in the primary screen | 14.5% | cause unfolding of human SUMO1 |  | 41.7 µM and ~42 µM | Precipitation |  | UF
C[C@@H]1O[C@@H](Oc2c(-c3ccc(O)c(O)c3)oc3cc(O)cc(O)c3c2=O)[C@H](O)[C@H](O)[C@H]1O [Quercitrin] |  |  | × (low or no binding activity) |  | 14.2% | significant thermal destabilization or unfolding | 54.28 ± 0.19 °C |  |  |  | 
